According to BindingDB's records for doi:10.1021/acs.jmedchem.8b01394 (Roche Pharma Research and Early Development, 2018):

assay: Inhibition of RSV Long fusion protein assessed as decrease in virus induced syncytium formation in infected human HeLa/M cells

In the case of `Cc1ccc(O)c(Cn2c(NC3CCN(CCN)CC3)nc3c(C)cccc32)n1` [JNJ 2408068], the EC50 is reported as 0.16 nM.

assay: Inhibition of RSV Long fusion protein assessed as protection against virus induced cytopathic effect in infected human Hep2 cells after 5 days by CCK8 assay

First: Cc1ccc2nc(N3CCS(=O)(=O)c4ccccc4C3)cc(NCCCCN)c2c1
Second: Cc1ccc2nc(N3CCS(=O)(=O)c4ccccc4C3)cc(NCCCCCN)c2c1
The EC50 of the first is 3.9-fold lower: 7 nM for the first, 27 nM for the second.

Compared with `CS(=O)(=O)c1ccc2nc(N3CCCc4ccccc4C3)cc(NCCN)c2c1`, `Cc1ccc2nc(N3CCCc4ccccc4C3)cc(NCCN)c2c1` is 77-fold lower in EC50: 5600 nM for the first, 73 nM for the second.

First: NCCNc1cc(N2CCS(=O)(=O)c3ccccc3C2)nc2ccccc12
Second: Cc1ccc2nc(N3CCS(=O)(=O)c4ccccc4C3)cc(NCCN)c2c1
The EC50 of the first is 2.8-fold higher: 11 nM for the first, 4 nM for the second. The second is the more potent here.

First: NCCNc1cc(N2CCOc3ccccc3C2)nc2ccccc12
Second: NCCNc1cc(N2CCc3ccccc3C2)nc2ccccc12
The EC50 of the first is 10-fold lower: 230 nM for the first, 2300 nM for the second.

Compared with `Cc1ccc2nc(N3CCC(F)(F)c4ccccc4C3)cc(NCCN)c2c1`, `Cc1ccc2nc(N3CCNc4ccccc4C3)cc(NCCN)c2c1` is 3.7-fold higher in EC50: 62 nM for the first, 230 nM for the second. The first is the more potent here.

`NCC(O)CNc1cc(N2CCc3ccccc3C2)nc2ccccc12` (stereo not drawn) and `NCC(O)CNc1cc(N2CCCc3ccccc3C2)nc2ccccc12` (stereo not drawn) are the same in EC50: 220 nM for the first, 220 nM for the second.

Going from `NCC(O)CNc1cc(N2Cc3ccccc3C2)nc2ccccc12` (stereo not drawn) to `OCC(O)CNc1cc(N2CCc3ccccc3C2)nc2ccccc12` (stereo not drawn), the EC50 falls from greater than 100000 nM to 22000 nM. The second is the more potent here.

Going from `CC(O)CNc1cc(N2CCc3ccccc3C2)nc2ccccc12` (stereo not drawn) to `NCCCNc1cc(N2CCc3ccccc3C2)nc2ccccc12`, the EC50 falls from greater than 100000 nM to 7800 nM. The second is the more potent here.

First: NCCCCNc1cc(N2CCc3ccccc3C2)nc2ccccc12
Second: NCCNc1cc(N2CCCc3ccccc3C2)nc2ccccc12
The EC50 of the first is higher: greater than 100000 nM for the first, 200 nM for the second.

Going from `NC(=O)NCCNc1cc(N2CCc3ccccc3C2)nc2ccccc12` to `N=C(N)NCCNc1cc(N2CCc3ccccc3C2)nc2ccccc12`, the EC50 falls from 15000 nM to 2300 nM (6.5-fold).

Going from `NCCNc1cc(N2CCCc3ccccc3C2)nc2cccc(Cl)c12` to `NCCNc1cc(N2CCCc3ccccc3C2)nc2c(Cl)cccc12`, the EC50 falls from 6600 nM to 1100 nM (6-fold). The second is the more potent here.

Going from `NCCNc1cc(N2CCCc3ccccc3C2)nc2cc(Cl)ccc12` to `NCCNc1cc(N2CCCc3ccccc3C2)nc2ccc(Cl)cc12`, the EC50 falls from greater than 3200 nM to 120 nM. The second is the more potent here.

First: NCCNc1cc(N2CCCc3ccccc3C2)nc2ccc(F)cc12
Second: COc1ccc2nc(N3CCCc4ccccc4C3)cc(NCCN)c2c1
The EC50 of the first is 4.7-fold higher: 1500 nM for the first, 320 nM for the second. The second is the more potent here.

Compared with `NCCNc1cc(N2CCCc3ccccc3C2)nc2ccc(C(F)(F)F)cc12`, `Cc1ccc2nc(N3CCCc4cc(F)ccc4C3)cc(NCCN)c2c1` is 2.4-fold lower in EC50: 1100 nM for the first, 460 nM for the second.

Going from `Cc1ccc2nc(N3CC(=O)Nc4ccccc4C3)cc(NCCN)c2c1` to `Cc1ccc2nc(N3CCS(=O)(=O)c4ccccc4C3)cc(NCCCN)c2c1`, the EC50 falls from 310 nM to 1 nM (310-fold).

Work on `Cc1ccc2nc(N3CCCc4ccc(F)cc4C3)cc(NCCN)c2c1` yielded an EC50 of 100 nM.

assay: Inhibition of RSV Long fusion protein L138F mutant assessed as protection against virus induced cytopathic effect in infected human Hep2 cells after 5 days by CCK8 assay

With `NCCNc1cc(N2CCCc3ccccc3C2)nc2ccccc12` the IC50 was 2300 nM.
